One experiment deals with T1, Protein O-GlcNAcase (Homo sapiens, UniProt O60502).
T1 sequence (O60502 whole entry): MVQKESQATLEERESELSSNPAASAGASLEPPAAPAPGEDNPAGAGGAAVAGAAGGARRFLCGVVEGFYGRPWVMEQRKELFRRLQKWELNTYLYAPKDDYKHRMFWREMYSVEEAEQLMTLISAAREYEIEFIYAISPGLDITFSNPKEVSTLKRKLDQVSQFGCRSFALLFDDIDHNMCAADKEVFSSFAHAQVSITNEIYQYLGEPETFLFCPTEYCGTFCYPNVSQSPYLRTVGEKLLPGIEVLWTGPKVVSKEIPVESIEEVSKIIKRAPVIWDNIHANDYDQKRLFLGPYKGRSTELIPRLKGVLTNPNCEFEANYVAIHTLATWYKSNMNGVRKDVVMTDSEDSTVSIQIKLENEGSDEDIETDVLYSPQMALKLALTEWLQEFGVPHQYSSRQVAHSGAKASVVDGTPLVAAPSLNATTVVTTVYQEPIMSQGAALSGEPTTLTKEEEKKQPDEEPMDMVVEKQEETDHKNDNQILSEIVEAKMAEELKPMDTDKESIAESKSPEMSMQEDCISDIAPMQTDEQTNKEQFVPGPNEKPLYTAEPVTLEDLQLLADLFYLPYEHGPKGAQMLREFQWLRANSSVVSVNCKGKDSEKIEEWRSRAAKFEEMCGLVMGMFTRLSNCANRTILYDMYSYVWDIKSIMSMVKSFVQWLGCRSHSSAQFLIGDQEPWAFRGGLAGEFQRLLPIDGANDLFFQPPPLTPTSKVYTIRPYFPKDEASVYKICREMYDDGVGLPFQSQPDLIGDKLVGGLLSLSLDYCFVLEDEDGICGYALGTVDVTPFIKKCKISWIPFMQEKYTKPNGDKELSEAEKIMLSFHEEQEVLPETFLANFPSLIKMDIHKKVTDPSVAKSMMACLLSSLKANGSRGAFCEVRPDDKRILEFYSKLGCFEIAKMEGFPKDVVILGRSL
Put plainly: Inhibition of human O-GlcNAcase.

In the next experiment the test system is Saccharomyces cerevisiae. Put plainly: Inhibition of Saccharomyces cerevisiae alpha-glucosidase.
In experiment [1] the target is T2, Beta-hexosaminidase (Vibrio cholerae serotype O1 (strain ATCC 39315 / El Tor Inaba N16961)) (UniProt Q9KU37).
T2 sequence (whole entry): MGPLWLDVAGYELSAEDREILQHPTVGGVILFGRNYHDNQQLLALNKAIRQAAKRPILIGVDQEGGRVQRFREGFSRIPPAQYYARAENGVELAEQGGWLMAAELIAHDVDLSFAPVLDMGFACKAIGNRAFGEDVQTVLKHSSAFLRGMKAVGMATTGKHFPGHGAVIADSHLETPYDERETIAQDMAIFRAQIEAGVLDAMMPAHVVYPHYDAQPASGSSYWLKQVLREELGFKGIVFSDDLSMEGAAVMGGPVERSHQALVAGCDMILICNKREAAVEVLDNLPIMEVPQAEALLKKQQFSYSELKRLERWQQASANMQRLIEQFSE
Put plainly: Inhibition of Vibrio cholerae glycoside hydrolase NagZ.

Experiment [2] addresses Beta-galactosidase (Kluyveromyces lactis) (UniProt P00723). Put plainly: Inhibition of Kluyveromyces lactis glycoside hydrolase beta-galactosidase.
A short description of experiment [3]: Inhibition of human lysosomal beta-hexosaminidase.
Experiment [4] deals with Rattus norvegicus. Briefly: Increase in O-GlcNAc level in Sprague-Dawley rat brain pyramidal cell layer of CA1 region at 200 mg/kg, po by […]. Set-up: dose 200 mg/kg. The format is functional, organism-based.
Another experiment concerns Canavalia ensiformis. Briefly: Inhibition of Canavalia ensiformis alpha-mannosidase.
The target in experiment [5] is T3, Alpha-galactosidase (Thermotoga maritima) (UniProt G4FEF4).
T3 sequence (whole entry): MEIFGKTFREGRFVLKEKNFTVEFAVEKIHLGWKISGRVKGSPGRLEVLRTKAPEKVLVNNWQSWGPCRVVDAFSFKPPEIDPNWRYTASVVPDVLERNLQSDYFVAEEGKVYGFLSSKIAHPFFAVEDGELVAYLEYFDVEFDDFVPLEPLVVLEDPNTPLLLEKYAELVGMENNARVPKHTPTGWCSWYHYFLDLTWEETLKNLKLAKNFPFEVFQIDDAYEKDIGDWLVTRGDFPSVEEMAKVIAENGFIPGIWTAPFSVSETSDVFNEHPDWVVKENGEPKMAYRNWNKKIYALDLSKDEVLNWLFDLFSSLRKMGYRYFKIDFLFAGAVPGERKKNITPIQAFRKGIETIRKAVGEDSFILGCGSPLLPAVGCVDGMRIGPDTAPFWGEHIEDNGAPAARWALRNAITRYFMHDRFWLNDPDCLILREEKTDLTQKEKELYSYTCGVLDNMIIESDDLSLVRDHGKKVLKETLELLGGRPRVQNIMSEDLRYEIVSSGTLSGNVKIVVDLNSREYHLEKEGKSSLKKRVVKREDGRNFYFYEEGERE
Put plainly: Inhibition of Thermotoga maritima alpha-galactosidase.

The test system of experiment [6] is PC-12. Put plainly: Induction of O-GlcNAc level in NGF-differentiated rat PC12 cells after 24 hrs by Western blot analysis. The format is functional, cell-based. On the technique in general: Immunoblotting shows a protein as a band on a membrane.
For experiment [7], the system named is PC-12. Put plainly: Induction of O-GlcNAc level in NGF-differentiated rat PC12 cells after 24 hrs by densitometric analysis. The format is functional, cell-based. As to conditions: PC-12, 24 h.
For experiment [8], the system named is PC-12. Put plainly: Induction of O-GlcNAc level in NGF-differentiated rat PC12 cells at >25 uM by Western blot analysis. Format: functional, cell-based. To be noted: TDE = time-dependent effect.
The subject of experiment [9] is Rattus norvegicus. Put plainly: Induction of O-GlcNAc level in rat at 50 mg/kg, iv by Western blot analysis. As to conditions: TDE = time-dependent effect. More on the design: dose 50 mg/kg. Format: functional, organism-based.
A short description of experiment [10]: Inhibition of beta-hexosaminidase.
Experiment [11] concerns PC-12. Briefly: Reduction in tau protein phosphorylation at Ser396 position in NGF-differentiated rat PC12 cells after 4 hrs by Western blot analysis relative to control. The format is functional, cell-based.
For experiment [12], the system named is Rattus norvegicus. Put plainly: Reduction in tau protein phosphorylation at Ser396 in Sprague-Dawley rat brain CA1 region at 200 mg/kg, po by […]. Format: functional, organism-based. Set-up: dose 200 mg/kg.
The test system of experiment [13] is PC-12. Put plainly: […] in pSer396 immunoreactivity in NGF-differentiated rat PC12 cells after 4 hrs by Western blot analysis. As to conditions: TDE = time-dependent effect. The format is functional, cell-based.
Experiment [14] deals with Rattus norvegicus. Put plainly: Increase in O-GlcNAc immunoreactivity in Sprague-Dawley rat brain CA1 region at 200 mg/kg, po by […]. Format: functional, organism-based. More on the design: dose 200 mg/kg.
For experiment [15], the system named is Rattus norvegicus. Briefly: Reduction in tau protein phosphorylation at Thr231 in Sprague-Dawley rat brain CA1 region at 200 mg/kg, po by […]. Format: functional, organism-based. More on the design: dose 200 mg/kg.
The test system of experiment [16] is Rattus norvegicus. Briefly: Increase in O-GlcNAc immunoreactivity in Sprague-Dawley rat brain nucleus at 200 mg/kg, po by […]. The format is functional, organism-based. Set-up: dose 200 mg/kg.
Experiment [17] concerns Rattus norvegicus. Put plainly: Increase in O-GlcNAc immunoreactivity in Sprague-Dawley rat brain perikaryon at 200 mg/kg, po by […]. Format: functional, organism-based. Set-up: dose 200 mg/kg.
In experiment [18] the test system is Rattus norvegicus. Put plainly: Decrease in pSer396 immunoreactivity in Sprague-Dawley rat brain epitops of CA1 region at 200 mg/kg, po by […]. More on the design: dose 200 mg/kg. The format is functional, organism-based.
In experiment [19] the test system is Rattus norvegicus. Put plainly: Decrease in pThr231 immunoreactivity in Sprague-Dawley rat brain epitops of CA1 region at 200 mg/kg, po by […]. The format is functional, organism-based. More on the design: dose 200 mg/kg.
Experiment [20] has as its system Rattus norvegicus. Put plainly: Decrease in pSer396 immunoreactivity in Sprague-Dawley rat brain pyramidal cell layer of CA1 region at 200 mg/kg, po by […]. Format: functional, organism-based. More on the design: dose 200 mg/kg.
The subject of experiment [21] is Rattus norvegicus. Briefly: Decrease in pThr231 immunoreactivity in Sprague-Dawley rat brain pyramidal cell layer of CA1 region at 200 mg/kg, po by […]. The format is functional, organism-based. More on the design: dose 200 mg/kg.
For the next experiment, the species on record is Homo sapiens. Put plainly: Selectivity for human O-GlcNAcase over human lysosomal beta-hexosaminidase.

Active and inactive are the calls of the source. No cut-off for these calls is given here.

Sequence of Beta-galactosidase (Kluyveromyces lactis) (P00723 whole entry): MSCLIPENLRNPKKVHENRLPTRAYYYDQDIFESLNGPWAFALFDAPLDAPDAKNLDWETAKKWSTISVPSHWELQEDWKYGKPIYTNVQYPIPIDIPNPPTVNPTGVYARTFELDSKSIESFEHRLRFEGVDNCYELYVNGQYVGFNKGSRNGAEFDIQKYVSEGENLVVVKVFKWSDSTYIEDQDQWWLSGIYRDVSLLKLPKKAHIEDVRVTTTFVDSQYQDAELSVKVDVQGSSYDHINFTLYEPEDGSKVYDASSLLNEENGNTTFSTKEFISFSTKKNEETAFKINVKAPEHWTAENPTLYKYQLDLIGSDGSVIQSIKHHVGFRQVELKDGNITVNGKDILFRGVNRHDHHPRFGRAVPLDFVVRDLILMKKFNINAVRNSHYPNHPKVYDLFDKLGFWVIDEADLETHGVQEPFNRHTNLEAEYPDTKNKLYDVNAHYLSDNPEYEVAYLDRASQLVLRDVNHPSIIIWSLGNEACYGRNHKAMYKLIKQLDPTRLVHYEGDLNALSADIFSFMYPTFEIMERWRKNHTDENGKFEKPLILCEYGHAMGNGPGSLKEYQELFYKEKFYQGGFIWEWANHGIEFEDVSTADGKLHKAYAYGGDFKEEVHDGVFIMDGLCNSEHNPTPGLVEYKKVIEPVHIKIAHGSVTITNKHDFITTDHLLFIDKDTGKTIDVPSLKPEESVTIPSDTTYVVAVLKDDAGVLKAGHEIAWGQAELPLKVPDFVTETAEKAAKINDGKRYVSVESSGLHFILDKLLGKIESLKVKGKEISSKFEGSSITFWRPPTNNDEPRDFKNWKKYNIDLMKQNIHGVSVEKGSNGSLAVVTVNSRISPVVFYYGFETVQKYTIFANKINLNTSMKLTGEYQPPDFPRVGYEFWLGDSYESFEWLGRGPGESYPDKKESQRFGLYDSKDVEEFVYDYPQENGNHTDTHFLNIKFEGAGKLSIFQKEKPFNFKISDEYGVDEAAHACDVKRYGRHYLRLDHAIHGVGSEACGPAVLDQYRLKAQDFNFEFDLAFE

With `CC(=O)N[C@H]1c2nc(CC(=O)O)cn2[C@H](CO)[C@@H](O)[C@@H]1O`, the Ki (as a rule, a measure of affinity in units of concentration, obtained from inhibition or displacement) on Protein O-GlcNAcase was determined as 0.42 µM.

With `CCNC1=N[C@@H]2[C@@H](O)[C@H](O)[C@@H](CO)O[C@@H]2S1`, the inhibition entry (in the experiment on Saccharomyces cerevisiae; in experiment [1]; in [2]; with Canavalia ensiformis; in experiment [5]; in [10]) was “inactive” each time. The Ki in experiment [3] came out at 750 µM. The outcome in the experiment with Rattus norvegicus [4], in the experiment with Rattus norvegicus [12], with Rattus norvegicus [14], in the experiment on Rattus norvegicus [15], in the experiment with Rattus norvegicus [16] and in the experiment with Rattus norvegicus [17] was Active. Moreover, the result with Rattus norvegicus [18], with Rattus norvegicus [19], with Rattus norvegicus [20] and in the experiment on Rattus norvegicus [21] was Active. Also, the Activity result was “Dose-dependent effect” in the experiment on PC-12 [6]; “tde” in the experiment on PC-12 [8]; “tde” in the experiment on Rattus norvegicus [9]; “Dose-dependent effect” in the experiment with PC-12 [11]; “tde” with PC-12 [13]. In addition, the EC50 – broadly, the midpoint of the concentration-response curve – in the experiment with PC-12 [7] came to 0.03 µM.

On to `CCCC1=N[C@@H]2[C@@H](O)[C@H](O)[C@@H](CO)O[C@@H]2S1`, for which the fold change (FC) in the experiment listed under Homo sapiens turned out to be 800. Besides, at Protein O-GlcNAcase, affinity was put at a Ki of 0.6 µM.

(Values after ChEMBL document CHEMBL1212706, “A potent mechanism-inspired O-GlcNAcase inhibitor that blocks phosphorylation of tau in vivo” (Nat Chem Biol, 2008).)
